A value given as a limit tells only on which side of the number the result lay.

In test [1] the target is T1, bovine thrombin (Bos taurus, UniProt P00735).
T1 construct: 500 units of Thrombin (derived from bovine; Mochida Pharmaceutical); purchased Mochida Pharmaceutical
The test can be described thus: Test on measurement of coagulation time by bovine thrombin. The format is biochemical. The note with it: human blood plasma; concentration by which the coagulation time is prolonged 2-fold. On the procedure:
2) Test on Measurement of Coagulation Time by Bovine Thrombin
To 50 μl of human blood plasma was added 50 μl of a drug or a physiological saline, incubation was carried out at 37° C. for 3 minutes, 50 μl of thrombin (500 units of Thrombin (derived from bovine; Mochida Pharmaceutical) previously warmed at 37° C. was added and the time until coagulation was measured by a coagulo-meter (KC10 of Amelung). With regard to the human blood plasma, each 45 ml of blood was collected from vein of elbow of six healthy persons using a syringe in which 5 ml of 3.8% sodium citrate was contained and centrifuged at 4° C. for 15 minutes at 3,000 rpm and the separated blood plasma was pooled and frozen, then thawed before use. With regard to the thrombin, the concentration by which the coagulation time when a physiological saline (control) was added was about 20 seconds was selected. A CT2 value (concentration by which the coagulation time is prolonged to an extent of 2-fold) was determined by plotting the drug concentrations and relative value (fold) of the coagulation time to the control, followed by subjecting to linear regression.

Test [2] addresses T2, human factor Xa (Homo sapiens, UniProt P00742).
T2 construct: purchased Enzyme Research Labs
Put plainly: Test on measurement of coagulation time by human activated blood coagulation factor X. The settings on record: human blood plasma; concentration by which the coagulation time is prolonged 2-fold. It is filed as biochemical. On the procedure:
1) Test on Measurement of Coagulation Time by Human Activated Blood Coagulation Factor X
To 90 μl of human blood plasma were added 10 μl of a drug or a physiological saline and 50 μl of human factor Xa (Enzyme Research Labs), incubation was carried out at 37° C. for 3 minutes, 100 μl of 20 mM CaCl2 previously warmed at 37° C. were added and the time until coagulation was measured by a coagulo-meter (KC10 of Amelung). With regard to the human blood plasma, each 45 ml of blood were collected from vein of elbow of six healthy persons using a syringe in which 5 ml of 3.8% sodium citrate were contained and centrifuged at 4° C. for 15 minutes at 3,000 rpm and the separated blood plasma was pooled and frozen, then thawed before use. With regard to the human factor Xa, the concentration by which the coagulation time when a physiological saline (control) was added was about 30 to 40 seconds was selected. A CT2 value (concentration by which the coagulation time is prolonged to an extent of 2-fold) was determined by plotting the drug concentrations and relative value (fold) of the coagulation time to the control, followed by subjecting to linear regression.

The nature of test [3]: Test on ex vivo measurement of coagulation time in cynomolgus monkeys (oral administration). The settings on record: male cynomolgus monkeys, po 10 mg/kg, as compared with control (plasma without administration of a drug). On the procedure:
(§1) a) Extrinsic Coagulation Time (PT)
(§2) Ortho Brain Thromboplastin (54 mg/vial; a freeze-dried preparation; Ortho-Clinical Diagnostics) was dissolved in 2.5 ml of Milli-Q water and preliminarily warmed at 37° C. The above-separated blood plasma (50 μl) was warmed at 37° C. for 1 minute, 50 μl of the above-mentioned thromboplastin solution was added and the coagulation time was measured. Amelung KC10A was used for the measurement of the coagulation time.
(§3) b) Intrinsic Coagulation Time (APTT)
(§4) To 50 μl of the above blood plasma was added 50 μl of Hemoliance Thrombosil I (DIA-IATRON), the mixture was warmed at 37° C. for 3 minutes, 50 μl of a 20 mM CaCl2 solution previously warmed at 37° C. were added and the coagulation time was measured. KC10A manufactured by Amelung was used for the measurement of the coagulation time.
5) Test on ex vivo Measurement of Coagulation Time in Cynomolgus Monkeys (Oral Administration) […]

Test [4] in a line: Test on ex vivo measurement of coagulation time in mice (oral administration). The settings on record: male ICR mouse, po 100 mg/kg, as compared with control (plasma without administration of a drug). On the procedure:
4) Test on ex vivo Measurement of Coagulation Time in Mice (Oral Administration)
Using the resulting blood plasma, extrinsic coagulation time (PT) and intrinsic coagulation time (APTT) were measured in accordance with the following methods a) and b).
as §1, §2, §3, §4
Dose dependency of and time-course changes in the anticoagulation action were also examined by changing the administration dose or the blood collection time.

T2 sequence (P00742 235-488 limits assumed): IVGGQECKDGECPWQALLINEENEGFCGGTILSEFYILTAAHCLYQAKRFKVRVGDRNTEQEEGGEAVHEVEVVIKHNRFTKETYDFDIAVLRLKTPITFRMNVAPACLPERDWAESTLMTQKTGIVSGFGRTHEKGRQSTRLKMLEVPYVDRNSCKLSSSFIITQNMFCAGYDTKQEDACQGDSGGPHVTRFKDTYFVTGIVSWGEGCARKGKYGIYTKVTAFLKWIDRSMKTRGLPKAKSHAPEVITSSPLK
T2 sequence (P00742 41-179 partner limits assumed): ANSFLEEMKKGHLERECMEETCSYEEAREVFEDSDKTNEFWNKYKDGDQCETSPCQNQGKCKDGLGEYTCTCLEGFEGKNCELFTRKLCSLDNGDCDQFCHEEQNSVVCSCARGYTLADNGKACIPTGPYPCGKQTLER

Regarding `COc1ccc(C(=O)Nc2ccccc2NC(=O)c2ccc(C3CCNCC3)cc2)cc1` [Control 1, reference compound], the “Test on measurement of coagulation time by bovine thrombin (CT2)” value (shortened to “Test … by bovine thrombin (CT2)”) in test [1] was more than 100 µM. The “Test on measurement of coagulation time by human activated blood coagulation factor X (CT2)” value in test [2] was determined as 17.0 µM.
For `CN1CCCN(c2ccc(C(=O)Nc3cc(C(=O)O)ccc3COc3cccc(C(=N)N)c3)cc2)CC1.Cl` [Example 3], in test [3], the “prolongation of extrinsic coagulation time (PT)” value is “twice or more” and the “prolongation of intrinsic coagulation time (APTT)” value was “twice or more”. Also, in test [4], the “prolongation of extrinsic coagulation time (PT)” value is on record as “twice or more” and the “prolongation of intrinsic coagulation time (APTT)” value is reported as “twice or more”.
For the molecule `COc1ccc(C(=O)Nc2cccc(O)c2NC(=O)c2ccc(N3CCCN(c4ccncc4)CC3)cc2)cc1.Cl` [Example 32], the “Test … by bovine thrombin (CT2)” value in test [1] was more than 100 µM. Moreover, in test [2], the “Test on measurement of coagulation time by human activated blood coagulation factor X (CT2)” value was 1.41 µM.
In the same order, the values of `CN1CCCN(c2ccc(C(=O)Nc3cc(C(=O)O)ccc3CCc3cccc(C(=N)N)c3)cc2)CC1.Cl` [Example 5] are more than 100 µM and 0.10 µM.
For `COc1ccc(C(=O)Nc2ccc(O)cc2NC(=O)c2ccc(N(C)C)cc2)cc1` [Control 2, reference compound], the “Test on measurement of coagulation time by human activated blood coagulation factor X (CT2)” value in test [2] stood at 11.3 µM.
On to `COc1ccc(C(=O)Nc2cccc(OCCO)c2NC(=O)c2ccc(N3CCCN(C)CC3)cc2)cc1.Cl` [Example 39, 3-(2-hydroxyethoxy)-N^1-(4-methoxybenzoyl)-N^2-[4-(4-methyl-1,4-diazepan-1-yl)benzoyl]-1,2-phenylenediamine hydrochloride], for which, in test [1], the “Test … by bovine thrombin (CT2)” value is more than 100 µM. Moreover, the “Test on measurement of coagulation time by human activated blood coagulation factor X (CT2)” value in test [2] was 1.53 µM.
With `CN1CCCN(c2ccc(C(=O)Nc3c(O)cccc3C(=O)Nc3ccc(F)cc3)cc2)CC1.Cl` [Example 11], in test [1], the “Test … by bovine thrombin (CT2)” value is more than 100 µM. In addition, in test [2], the “Test on measurement of coagulation time by human activated blood coagulation factor X (CT2)” value worked out at 1.33 µM.
Turning to `COc1ccc(NC(=O)c2cccc(O)c2NC(=O)c2ccc(N3CCCN(C)CC3)cc2)cc1.Cl` [Example 9, 3-hydroxy-4′-methoxy-2-{[4-(4-methyl-1,4-diazapan-1-yl)benzoyl]amino}benzanilide hydrochloride], in test [1], the “Test … by bovine thrombin (CT2)” value is more than 100 µM. In addition, in test [2], the “Test on measurement of coagulation time by human activated blood coagulation factor X (CT2)” value was 1.71 µM.

The values are drawn from patent US6642224B1, “Diazepan derivatives or salts thereof” (Yamanouchi Pharmaceutical Co., Ltd., priority 2000, dated 2003).
